Assay results as given in patent US9260408B2, “Dihydroquinoline-2-one derivatives” (Hoffmann-La Roche Inc., priority 2011, dated 2016).
pEC50: −log10 of the molar value. Counter-ions that a name gives are not always drawn.

Tests used:
human CYP11B2 = molecular target: T1, human CYP11B2 (Homo sapiens, UniProt P19099); test: G-402 cellular enzyme assay, human CYP11B2 (aldosterone release, HTRF); assay type: cell-based; conditions: G-402 cells expressing human CYP11B2; 1 μM Deoxycorticosterone
T1 construct: expressed in transfected cells
T1 sequence (P19099 25-503): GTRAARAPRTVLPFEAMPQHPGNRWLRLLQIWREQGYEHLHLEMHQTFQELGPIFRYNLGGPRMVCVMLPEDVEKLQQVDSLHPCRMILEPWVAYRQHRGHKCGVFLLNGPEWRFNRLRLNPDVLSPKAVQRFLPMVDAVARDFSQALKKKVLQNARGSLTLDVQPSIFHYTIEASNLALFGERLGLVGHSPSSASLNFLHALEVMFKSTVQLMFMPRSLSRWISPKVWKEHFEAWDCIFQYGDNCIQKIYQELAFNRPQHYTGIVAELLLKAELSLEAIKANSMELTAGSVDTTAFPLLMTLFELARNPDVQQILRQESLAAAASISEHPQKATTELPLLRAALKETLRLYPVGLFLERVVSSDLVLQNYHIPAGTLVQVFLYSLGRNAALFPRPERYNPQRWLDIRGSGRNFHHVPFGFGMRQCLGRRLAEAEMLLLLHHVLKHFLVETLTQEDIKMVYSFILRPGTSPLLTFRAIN
Procedure, shortened: (§1)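 G-402 cells stably expressing human CYP11B2 or CYP11B1, in DMEM/F12 with 2.5% charcoal-treated FCS, were incubated 16 h with compound plus 1 μM deoxycorticosterone (CYP11B2) or 1 μM deoxycortisol (CYP11B1). Aldosterone or cortisol in the supernatant measured by HTRF; EC50 from a 4-parameter MMF fit.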

human CYP11B1 = molecular target: T2, human CYP11B1 (Homo sapiens, UniProt P15538); test: G-402 cellular enzyme assay, human CYP11B1 (cortisol release, HTRF); assay type: cell-based; conditions: G-402 cells expressing human CYP11B1; 1 μM Deoxycortisol
T2 construct: expressed in transfected cells
T2 sequence (P15538 25-503): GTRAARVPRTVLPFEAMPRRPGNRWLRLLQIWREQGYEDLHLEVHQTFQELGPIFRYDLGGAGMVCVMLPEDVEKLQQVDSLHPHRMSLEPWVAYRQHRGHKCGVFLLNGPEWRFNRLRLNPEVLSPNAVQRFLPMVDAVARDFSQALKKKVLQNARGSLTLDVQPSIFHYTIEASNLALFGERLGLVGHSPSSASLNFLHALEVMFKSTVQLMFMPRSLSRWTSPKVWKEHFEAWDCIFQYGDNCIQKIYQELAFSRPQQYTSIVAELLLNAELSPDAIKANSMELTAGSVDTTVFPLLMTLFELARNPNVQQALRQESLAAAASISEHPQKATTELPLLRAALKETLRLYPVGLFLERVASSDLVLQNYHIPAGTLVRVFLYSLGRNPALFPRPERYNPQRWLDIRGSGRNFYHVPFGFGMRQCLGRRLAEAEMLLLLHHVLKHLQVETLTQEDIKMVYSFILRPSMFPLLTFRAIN
Procedure, shortened: as §1

SMILES | pEC50 (human CYP11B2) | pEC50 (human CYP11B1)
CN1C(=O)CCc2cc(-c3cncc(N4CCC[C@@H]4CO)c3)ccc21 [Example 6, 6-[5-((R)-2-Hydroxymethyl-pyrrolidin-1-yl)-pyridin-3-yl]-1-methyl-3,4-dihydro-1H-quinolin-2-one] | 7.01 | 5.48
CN1C(=O)CCc2cc(-c3cncc(O[C@@H]4CCNC4)c3)c(F)cc21 [Example 67, 7-Fluoro-1-methyl-6-[5-((R)-pyrrolidin-3-yloxy)-pyridin-3-yl]-3,4-dihydro-1H-quinolin-2-one hydrochloride] | 6.80 | 5.11
CN1C(=O)CCc2cc(-c3cncc(CNC(=O)c4cnn(C)c4)c3)ccc21 [Example 87, 1-Methyl-1H-pyrazole-4-carboxylic acid [5-(1-methyl-2-oxo-1,2,3,4-tetrahydro-quinolin-6-yl)-pyridin-3-ylmethyl]-amide] | 7.77 | 5.97
CCC(=O)N1CC[C@H]1COc1cncc(-c2ccc3c(c2)CCC(=O)N3C)c1 [Example 94] | 7.64 | 5.87
CN1C(=O)CCc2cc(-c3cncc(C4(NC(=O)c5ncccc5Cl)CC4)c3)ccc21 [Example 137, 3-Chloro-pyridine-2-carboxylic acid {1-[5-(1-methyl-2-oxo-1,2,3,4-tetrahydro-quinolin-6-yl)-pyridin-3-yl]-cyclopropyl}-amide] | 8.22 | 6.06
CN1C(=O)CCc2cc(-c3cncc(CN4CCC[C@H]4CO)c3)ccc21 [Example 7, 6-[5-((S)-2-Hydroxymethyl-pyrrolidin-1-ylmethyl)-pyridin-3-yl]-1-methyl-3,4-dihydro-1H-quinolin-2-one] | 7.25 | 6.24
CN1C(=O)CCc2cc(-c3cncc(N4CC5(CN(C(=O)OC(C)(C)C)C5)C4)c3)ccc21 [Example 29] | 6.59 | 5.25
CC(NC(=O)c1ncccc1Cl)c1cncc(-c2ccc3c(c2)CCC(=O)N3C)c1 (single isomer, unassigned) [Example 230, 3-Chloro-pyridine-2-carboxylic acid {(R or S)-1-[5-(1-methyl-2-oxo-1,2,3,4-tetrahydro-quinolin-6-yl)-pyridin-3-yl]-ethyl}-amide] | 9.00 | 8.15
CN1C(=O)CCc2cc(-c3cncc(OC[C@@H]4CCN4C(=O)OC(C)(C)C)c3)ccc21 [Example 45, (S)-2-[5-(1-Methyl-2-oxo-1,2,3,4-tetrahydro-quinolin-6-yl)-pyridin-3-yloxymethyl]-azetidine-1-carboxylic acid tert-butyl ester] | 7.06 | 6.06
CCS(=O)(=O)NCc1cncc(-c2ccc3c(c2F)CCC(=O)N3C)c1 [Example 210, Ethanesulfonic acid [5-(5-fluoro-1-methyl-2-oxo-1,2,3,4-tetrahydro-quinolin-6-yl)-pyridin-3-ylmethyl]-amide] | 7.52 | 5.87
Cc1noc(C)c1C(=O)NC(C)(C)c1cncc(-c2ccc3c(c2)CCC(=O)N3C)c1 [Example 139] | 7.74 | 6.34
CN1C(=O)CCc2cc(-c3cncc(CNS(=O)(=O)C4CC4)c3)ccc21 [Example 155, Cyclopropanesulfonic acid [5-(1-methyl-2-oxo-1,2,3,4-tetrahydro-quinolin-6-yl)-pyridin-3-ylmethyl]-amide] | 7.33 | 6.23
Cc1noc(C)c1C(=O)NCCOc1cncc(-c2cc3c(cc2F)N(C)C(=O)CC3)c1 [Example 267, 3,5-Dimethyl-isoxazole-4-carboxylic acid {2-[5-(7-fluoro-1-methyl-2-oxo-1,2,3,4-tetrahydro-quinolin-6-yl)-pyridin-3-yloxy]-ethyl}-amide] | 9.00 | 6.63
CN1C(=O)CCc2cc(-c3cncc(C4(NC(=O)c5ncccc5Cl)CC4)c3)c(F)cc21 [Example 142] | 8.52 | 6.42
CCC(=O)N1CCC[C@@H]1COc1cncc(-c2ccc3c(c2)CCC(=O)N3C)c1 [Example 128] | 6.92 | 5.64
CCC(=O)N[C@H]1CC[C@H](Oc2cncc(-c3ccc4c(c3)CCC(=O)N4C)c2)CC1 [Example 144] | 8.40 | 6.34
CN1C(=O)CCc2cc(-c3cncc(CNC(=O)c4cc(Cl)nnc4Cl)c3)c(F)cc21 [Example 132] | 7.54 | 5.32
CCS(=O)(=O)N1CCC(Oc2cncc(-c3ccc4c(c3)CCC(=O)N4C)c2)CC1 [Example 161, 6-[5-(1-Ethanesulfonyl-piperidin-4-yloxy)-pyridin-3-yl]-1-methyl-3,4-dihydro-1H-quinolin-2-one] | 9.00 | 8.10
CCOCCN(Cc1cncc(-c2ccc3c(c2)CCC(=O)N3C)c1)S(=O)(=O)CC [Example 185, Ethanesulfonic acid (2-ethoxy-ethyl)-[5-(1-methyl-2-oxo-1,2,3,4-tetrahydro-quinolin-6-yl)-pyridin-3-ylmethyl]-amide] | 6.20 | 5.03
CCC(=O)N1CC(Oc2cncc(-c3ccc4c(c3)CCC(=O)N4C)c2)C1 [Example 129] | 7.52 | 6.21
Cc1c(CN(C)C(=O)c2ncccc2Cl)cncc1-c1ccc2c(c1)CCC(=O)N2C [Example 229, 3-Chloro-pyridine-2-carboxylic acid methyl-[4-methyl-5-(1-methyl-2-oxo-1,2,3,4-tetrahydro-quinolin-6-yl)-pyridin-3-ylmethyl]-amide] | 8.00 | 6.18
CCOC(=O)N1CC[C@H](Oc2cncc(-c3ccc4c(c3)CCC(=O)N4C)c2)C1 [Example 256, (S)-3-[5-(1-Methyl-2-oxo-1,2,3,4-tetrahydro-quinolin-6-yl)-pyridin-3-yloxy]-pyrrolidine-1-carboxylic acid ethyl ester] | 8.10 | 6.80

Continued by rising pEC50 (human CYP11B2), values first:

pEC50 (human CYP11B2) | pEC50 (human CYP11B1) | SMILES
6.38 | 4.53 | CN1C(=O)CCc2nc(-c3cccnc3)ccc21 [Example 34, 1-Methyl-6-pyridin-3-yl-3,4-dihydro-1H-[1,5]naphthyridin-2-one]
6.76 | 5.42 | CN1C(=O)CCc2cc(-c3cncc(CNC(=O)c4cnoc4C(F)(F)F)c3)ccc21 [Example 145]
6.77 | 4.99 | CC(C)[C@H](CO)Nc1cncc(-c2ccc3c(c2)CCC(=O)N3C)c1 [Example 30, 6-[5-((R)-1-Hydroxymethyl-2-methyl-propylamino)-pyridin-3-yl]-1-methyl-3,4-dihydro-1H-quinolin-2-one]
7.39 | 5.77 | CCS(=O)(=O)NCc1cncc(-c2ccc3c(c2)CCC(=O)N3C)c1C [Example 194, Ethanesulfonic acid [4-methyl-5-(1-methyl-2-oxo-1,2,3,4-tetrahydro-quinolin-6-yl)-pyridin-3-ylmethyl]-amide]
7.66 | 5.92 | CCS(=O)(=O)NC1(c2cncc(-c3ccc4c(c3)CCC(=O)N4C)c2)CC1 [Example 166, Ethanesulfonic acid {1-[5-(1-methyl-2-oxo-1,2,3,4-tetrahydro-quinolin-6-yl)-pyridin-3-yl]-cyclopropyl}-amide]
7.70 | 6.77 | COC[C@@H]1CCCN1c1cncc(-c2ccc3c(c2)CCC(=O)N3C)c1 [Example 10, 6-[5-((S)-2-Methoxymethyl-pyrrolidin-1-yl)-pyridin-3-yl]-1-methyl-3,4-dihydro-1H-quinolin-2-one]
7.80 | 6.20 | Cc1nocc1C(=O)NCc1cncc(-c2ccc3c(c2)CCC(=O)N3C)c1 [Example 92]
7.85 | 5.84 | Cc1noc(C)c1C(=O)NCCOc1cncc(-c2ccc3c(c2)CCC(=O)N3C)c1 [Example 102]
8.00 | 6.63 | CCC1(NCc2cncc(-c3ccc4c(c3)CCC(=O)N4C)c2)COC1 [Example 206, 6-{5-[(3-Ethyl-oxetan-3-ylamino)-methyl]-pyridin-3-yl}-1-methyl-3,4-dihydro-1H-quinolin-2-one]
8.10 | 6.29 | CN(Cc1cncc(-c2ccc3c(c2)CCC(=O)N3C)c1)C(=O)c1ncccc1Cl [Example 196, 3-Chloro-pyridine-2-carboxylic acid methyl-[5-(1-methyl-2-oxo-1,2,3,4-tetrahydro-quinolin-6-yl)-pyridin-3-ylmethyl]-amide]
